This passage reports EC50 and Emax results from US20260167615A1, “COMPOUNDS AND COMPOSITIONS AS GPR52 MODULATORS” (Neurocrine Biosciences, Inc., priority 2022, published 2026).

SMILES strings stand for the structures.

For this assay, the target named is recombinant human GPR52 (Homo sapiens, UniProt Q9Y2T5). As to the kind of experiment: HTRF cAMP assay, GPR52 activity (Example A). The following applies: for EC50: average EC50 (n=1 to 15), Flp-In-CHO cells stably expressing recombinant human GPR52, cAMP HTRF, read-out: EC50 (N=); for Emax: maximum cAMP at 10 μM or 31.6 μM test compound, as percentage of Emax of control compound 4-(3-(3-fluoro-5-(trifluoromethyl)benzyl)-5-methyl-4,5-dihydro-1H-1,2,4-triazol-1-yl)-2-methylbenzamide. It is filed as cell-based. On the procedure:
Compounds of Formula I were assessed for their ability to modulate GPR52 activity. HTRF CAMP assays were performed using a commercially available assay kit (CAMP Gs HiRange HTRF®, CisBio). Controls and compounds were solubilized in DMSO and 62.5 nanoliters of the diluted compounds were transferred into 384-well NBS assay plates via acoustic or precision low-volume dispensing. Compounds were further diluted to 1× with the addition of 20,000 cells per well. Flp-In™—CHO cells that stably express recombinant human GPR52 were used in the assay.
Cells were harvested with cell stripper and resuspended in stimulation buffer. After thirty minutes incubation at room temperature, detection reagents were added to each well. Plates were then incubated for an additional 30 minutes at room temperature. CAMP produced by the cells during the first incubation period competes with d2-labeled CAMP for binding to an anti-cAMP monoclonal antibody labeled with europium cryptate. The measured signal was inversely proportional to the concentration of cAMP produced by the cells and this signal was quantified using a PHERAstar® multi-mode plate reader.
Dose-response curves were generated from the HTRF counts that have been transformed based on a CAMP referenced curve, and then normalized to the positive control. EC50 values were obtained using a nonlinear regression curve-fitting program. […] The Emax (Table 13) is the maximum amount of cAMP (nM) produced by incubation of the cells with 10 μM or 31.6 μM of a test compound. The compound is defined by the top plateau of the sigmoid curve fit. The curve is then normalized to a control compound, in this case 4-(3-(3-fluoro-5-(trifluoromethyl)benzyl)-5-methyl-4,5-dihydro-1H-1,2,4-triazol-1-yl)-2-methylbenzamide (Tokumaru, K., et al., “Design, synthesis, and pharmacological evaluation of 4-azolyl-benzamide derivatives as novel GPR52 agonists”, Bioorganic & Medicinal Chemistry, Volume 25, Issue 12, June 2017, pages 3098-3115), and expressed as a percentage of the Emax of that control compound.
On the technique in general: TR-FRET usually uses a lanthanide donor and a delayed reading to cut background.

Chain of recombinant human GPR52 (Q9Y2T5 whole entry): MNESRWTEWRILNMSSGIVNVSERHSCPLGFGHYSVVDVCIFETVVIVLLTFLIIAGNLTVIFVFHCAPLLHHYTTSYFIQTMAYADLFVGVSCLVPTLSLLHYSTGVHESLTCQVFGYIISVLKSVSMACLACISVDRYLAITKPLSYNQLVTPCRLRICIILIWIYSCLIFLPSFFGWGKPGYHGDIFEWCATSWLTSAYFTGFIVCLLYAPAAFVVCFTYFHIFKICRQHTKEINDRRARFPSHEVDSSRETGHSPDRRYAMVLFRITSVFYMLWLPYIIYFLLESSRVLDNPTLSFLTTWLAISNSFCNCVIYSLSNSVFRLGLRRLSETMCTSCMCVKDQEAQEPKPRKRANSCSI

For the molecule `Cc1cc(-c2cccc(Oc3cnc4c(C)nn(C)c4c3)c2)ccc1C(N)=O` [Example 31, 3′-((1,3-dimethyl-1H-pyrazolo[4,3-b]pyridin-6-yl)oxy)-3-methyl-[1,1′-biphenyl]-4-carboxamide], the EC50 was 101 to 1000 nM and the maximal response (Emax) turned out to be 88%.
In the same order, the values of `CCc1cc(-c2cccc(Oc3cnc4c(C)nn(C)c4c3)c2)ccc1C(N)=O` [Example 32, 3′-((1,3-dimethyl-1H-pyrazolo[4,3-b]pyridin-6-yl)oxy)-3-ethyl-[1,1′-biphenyl]-4-carboxamide] are 101 to 1000 nM and 103%.
In the case of `Cn1ncc2ncc(Oc3ccnc(-c4ccc(C(N)=O)c(C(F)(F)F)c4)c3)cc21` [Example 33, 4-(4-((1-methyl-1H-pyrazolo[4,3-b]pyridin-6-yl)oxy)pyridin-2-yl)-2-(trifluoromethyl)benzamide], the EC50 fell in the range of 101 to 1000 nM and the Emax worked out at 90%.
In the same order, the values of `CCc1cc(-c2cc(Oc3cnc4c(C)nn(C)c4c3)ccn2)cc(F)c1C(N)=O` [Example 34, 4-(4-((1,3-dimethyl-1H-pyrazolo[4,3-b]pyridin-6-yl)oxy)pyridin-2-yl)-2-ethyl-6-fluorobenzamide] are 1000 to 2000 nM and 77%.
In the same order, the values of `CNc1cc(-c2cc(Oc3ccc4c(C)nn(C)c4c3)ccn2)ccc1C(N)=O` [Example 35, 4-(4-((1,3-dimethyl-1H-indazol-6-yl)oxy)pyridin-2-yl)-2-(methylamino)benzamide] are 101 to 1000 nM and 85%.
As to `CCc1cc(-c2cc(Oc3cc(F)c4cnn(C)c4c3)ccn2)ccc1C(N)=O` [Example 36, 2-ethyl-4-(4-((4-fluoro-1-methyl-1H-indazol-6-yl)oxy)pyridin-2-yl)benzamide], the EC50 is less than 25 nM and the Emax was determined as 105%.
In the same order, the values of `Cc1cc(-c2cc(Oc3ccc4c(C(F)(F)F)nn(C)c4c3)ccn2)ccc1C(N)=O` [Example 37, 2-methyl-4-(4-((1-methyl-3-(trifluoromethyl)-1H-indazol-6-yl)oxy)pyridin-2-yl)benzamide] are 101 to 1000 nM and 81%.
In the same order, the values of `CCc1cc(-c2cc(Oc3cc(F)c4c(C)nn(C)c4c3)ccn2)ccc1C(N)=O` [Example 38, 2-ethyl-4-(4-((4-fluoro-1,3-dimethyl-1H-indazol-6-yl)oxy)pyridin-2-yl)benzamide] are 25 to 100 nM and 104%.
The corresponding values for `Cc1cc(-c2cc(Oc3cc(F)c4cnn(C)c4c3)ccn2)ccc1C(N)=O` [Example 39, 4-(4-((4-fluoro-1-methyl-1H-indazol-6-yl)oxy)pyridin-2-yl)-2-methylbenzamide] are 25 to 100 nM and 104%.
Turning to `Cc1nn(C)c2cc(Oc3ccnc(-c4ccc(C(N)=O)c(Cl)c4)c3)ccc12` [Example 40, 2-chloro-4-(4-((1,3-dimethyl-1H-indazol-6-yl)oxy)pyridin-2-yl)benzamide], the EC50 lay within 25 to 100 nM and the Emax came to 92%.
In the same order, the values of `CCc1cc(-c2cc(Oc3ccc4cn[nH]c4c3)ccn2)ccc1C(N)=O` [Example 41, 4-(4-((1H-indazol-6-yl)oxy)pyridin-2-yl)-2-ethylbenzamide] are 101 to 1000 nM and 125%.
Take `Cc1nn(C)c2cc(Oc3ccnc(-c4ccc(C(N)=O)c(C(F)(F)F)c4)c3)ccc12` [Example 42, 4-(4-((1,3-dimethyl-1H-indazol-6-yl)oxy)pyridin-2-yl)-2-(trifluoromethyl)benzamide]: the EC50 is 101 to 1000 nM and the Emax worked out at 83%.
In the same order, the values of `Cc1cc(-c2cc(Oc3ccc4cnn(C)c4c3)ccn2)ccc1C(N)=O` [Example 43, 2-methyl-4-(4-((1-methyl-1H-indazol-6-yl)oxy)pyridin-2-yl)benzamide] are 101 to 1000 nM and 103%.
The corresponding values for `CCn1ncc2ccc(Oc3ccnc(-c4ccc(C(N)=O)c(C)c4)c3)cc21` [Example 44, 4-(4-((1-ethyl-1H-indazol-6-yl)oxy)pyridin-2-yl)-2-methylbenzamide] are 101 to 1000 nM and 91%.
In the same order, the values of `Cn1ncc2ccc(Oc3ccnc(-c4ccc(C(N)=O)c(Cl)c4)c3)cc21` [Example 45, 2-chloro-4-(4-((1-methyl-1H-indazol-6-yl)oxy)pyridin-2-yl)benzamide] are 101 to 1000 nM and 88%.
Consider `CCc1cc(-c2cc(Oc3cc(C)c4cnn(C)c4c3)ccn2)ccc1C(N)=O` [Example 46, 4-(4-((1,4-dimethyl-1H-indazol-6-yl)oxy)pyridin-2-yl)-2-ethylbenzamide], for which the EC50 lay within 101 to 1000 nM and the Emax amounted to 63%.
The corresponding values for `Cn1ncc2ccc(Oc3ccnc(-c4ccc(C(N)=O)c(C(F)(F)F)c4)c3)cc21` [Example 47, 4-(4-((1-methyl-1H-indazol-6-yl)oxy)pyridin-2-yl)-2-(trifluoromethyl)benzamide] are 101 to 1000 nM and 88%.
The corresponding values for `CCc1cc(-c2cc(Oc3ccc4c(C#N)nn(C)c4c3)ccn2)ccc1C(N)=O` [Example 48, 4-(4-((3-cyano-1-methyl-1H-indazol-6-yl)oxy)pyridin-2-yl)-2-ethylbenzamide] are 101 to 1000 nM and 118%.
In the same order, the values of `Cc1cc(-c2cc(Oc3ccc4c(N)nn(C)c4c3)ccn2)ccc1C(N)=O` [Example 49, 4-(4-((3-amino-1-methyl-1H-indazol-6-yl)oxy)pyridin-2-yl)-2-methylbenzamide] are 101 to 1000 nM and 53%.
On to `Cc1cnc(-c2ccc(C(N)=O)c(C)c2)cc1Oc1ccc2cnn(C)c2c1` [Example 50, 2-methyl-4-(5-methyl-4-((1-methyl-1H-indazol-6-yl)oxy)pyridin-2-yl)benzamide], for which the EC50 lay within 101 to 1000 nM and the Emax was 78%.
The corresponding values for `Cc1cc(-c2cccc(Oc3ccc4cnn(C)c4c3)c2)ccc1C(N)=O` [Example 51, 3-methyl-3′-((1-methyl-1H-indazol-6-yl)oxy)-[1,1′-biphenyl]-4-carboxamide] are 1000 to 2000 nM and 96%.
In the same order, the values of `CCc1cc(-c2cccc(Oc3ccc4cnn(C)c4c3)c2)ccc1C(N)=O` [Example 52, 3-ethyl-3′-((1-methyl-1H-indazol-6-yl)oxy)-[1,1′-biphenyl]-4-carboxamide] are 1000 to 2000 nM and 86%.
The corresponding values for `CCc1cc(-c2cc(Oc3ccc4c(C)nn(C)c4c3)ccn2)ccc1C(N)=O` [Example 53, 4-(4-((1,3-dimethyl-1H-indazol-6-yl)oxy)pyridin-2-yl)-2-ethylbenzamide] are 25 to 100 nM and 105%.
For the molecule `Cc1cc(-c2cc(Oc3cnc4c(c3)c(C)nn4C)ccn2)ccc1C(N)=O` [Example 54, 4-(4-((1,3-dimethyl-1H-pyrazolo[3,4-b]pyridin-5-yl)oxy)pyridin-2-yl)-2-methylbenzamide], the concentration for a half-maximal effect (EC50) was 101 to 1000 nM and the Emax is 110%.
In the same order, the values of `CCc1cc(-c2cc(Oc3cnc4c(c3)c(C)nn4C)ccn2)ccc1C(N)=O` [Example 55, 4-(4-((1,3-dimethyl-1H-pyrazolo[3,4-b]pyridin-5-yl)oxy)pyridin-2-yl)-2-ethylbenzamide] are 25 to 100 nM and 108%.
In the case of `CCc1cc(-c2cc(Oc3cnc4c(c3)c(C(F)(F)F)nn4C)ccn2)ccc1C(N)=O` [Example 56, 2-ethyl-4-(4-((1-methyl-3-(trifluoromethyl)-1H-pyrazolo[3,4-b]pyridin-5-yl)oxy)pyridin-2-yl)benzamide], the concentration for a half-maximal effect (EC50) lay within 25 to 100 nM and the Emax amounted to 100%.
The corresponding values for `CCc1cc(-c2cc(Oc3ccc4c(c3)c(C)nn4C)ccn2)ccc1C(N)=O` [Example 57, 4-(4-((1,3-dimethyl-1H-indazol-5-yl)oxy)pyridin-2-yl)-2-ethylbenzamide] are 25 to 100 nM and 104%.
As to `Cc1cc(-c2cc(Oc3ccc4c(c3)c(C)nn4C)ccn2)ccc1C(N)=O` [Example 58, 4-(4-((1,3-dimethyl-1H-indazol-5-yl)oxy)pyridin-2-yl)-2-methylbenzamide], the EC50 is 25 to 100 nM and the Emax stood at 108%.
The corresponding values for `CCc1cc(-c2cc(Oc3ccc4cnn(C)c4c3)ccn2)ccc1C(=O)NC` [Example 59, 2-ethyl-N-methyl-4-(4-((1-methyl-1H-indazol-6-yl)oxy)pyridin-2-yl)benzamide] are 101 to 1000 nM and 95%.
The corresponding values for `CCc1cc(-c2cc(Oc3cnc4c(C)nn(C)c4c3)ccn2)ccc1C(=O)NC` [Example 60, 4-(4-((1,3-dimethyl-1H-pyrazolo[4,3-b]pyridin-6-yl)oxy)pyridin-2-yl)-2-ethyl-N-methylbenzamide] are 101 to 1000 nM and 102%.

One may read the EC50 as the midpoint of the concentration-response curve. By Emax is commonly meant the size of the effect at its maximum, as opposed to the concentration needed.
